Assay results published in patent US20230011269A1, “PHARMACEUTICAL COMPOSITION COMPRISING A POTENT INHIBITOR OF URAT1” (Ardea Biosciences, Inc., priority 2015, published 2023).
Values after ≈ are worked out from the molar mass of the structure shown. Like-named read-outs stand apart in the source and are kept apart here.

Key:
[1] = aqueous equilibrium solubility at 37° C.; assay type: physicochemical; details: aqueous media, thermodynamic from solid
Source text: The solubility of 2-((3-(4-cyanonaphthalen-1-yl)pyridine-4-yl)thio)-2-methylpropanoic acid in aqueous media is highly dependent upon pH.

[2] = Phase 1 study of MR formulations MR1-5: plasma pharmacokinetics; assay type: in vivo; details: male, human, oral, 5 mg, MR1-MR5 formulations, fasted and fed (Table 9), read-out: average terminal half-life
Protocol: A Phase 1, randomized study to evaluated the PK, PD, and safety and tolerability of 2-((3-(4-cyanonaphthalen-1-yl)pyridine-4-yl)thio)-2-methylpropanoic acid MR formulations in n=12 healthy adult male subjects in fasted and fed states. This study evaluated a total of 5 MR formulations at a 5 mg dose. The MR formulations tested are those described in Examples 2-6. Plasma samples for PK analysis were collected at the following time points: Pre-dose (within 30 minutes before dosing) and at 0.25, 0.5, 0.75, 1, 1.5, 2, 2.5, 3, 4, 5, 6, 8, 10, 12, 24, 30, 36, 48, 54, 60 and 72 hours post-dose. A summary of the mean plasma pharmacokinetic parameters following administration of the MR compositions of 2-((3-(4-cyanonaphthalen-1-yl)pyridine-4-yl)thio)-2-methylpropanoic acid are provided in Table 9.

[3] = Phase 1 crossover study MR4 4 x 2.5 mg vs 10 mg tablet, food effect: plasma pharmacokinetics; details: male, human, in vivo
Protocol: A Phase 1, randomized, open label, 4 way crossover PK and PD study in healthy adult male subjects designed to assess the relative bioavailability of 2-((3-(4-cyanonaphthalen-1-yl)pyridine-4-yl)thio)-2-methylpropanoic acid 2.5 mg MR tablets administered as a 10 mg dose (4×2.5 mg tablets) and a single 2-((3-(4-cyanonaphthalen-1-yl)pyridine-4-yl)thio)-2-methylpropanoic acid 10 mg MR tablet. The 10 mg MR tablet was prepared as described in Example 5a. This study also assessed the effect of a low fat and high fat meal on the PK and PD of 2-((3-(4-cyanonaphthalen-1-yl)pyridine-4-yl)thio)-2-methylpropanoic acid 10 mg MR tablets. Sixteen subjects were randomized to 1 of 4 treatment sequences. The treatments administered on Days 1 or 5 according to the randomization schedule were as follows: • Treatment A: 10 mg dose of 2-((3-(4-cyanonaphthalen-1-yl)pyridine-4-yl)thio)-2-methylpropanoic acid, administered as 4×2.5 mg ER tablets, in the fasted state. • Treatment B: 10 mg dose of 2-((3-(4-cyanonaphthalen-1-yl)pyridine-4-yl)thio)-2-methylpropanoic acid, administered as a single 10 mg ER tablet, in the fasted state. […]

CC(C)(Sc1ccncc1-c1ccc(C#N)c2ccccc12)C(=O)O [2-((3-(4-cyanonaphthalen-1-yl)pyridine-4-yl)thio)-2-methylpropanoic acid]
solubility at 24 h ([1]; pH 1, simulated gastric fluid, 0.1N HCl, pH initial 1.1, pH (24 h) 1.0, read-out: Solubility after 24 hours): 1480 µg/mL (≈ 4250 µM)
solubility at 48 h ([1]; pH 1.1, simulated gastric fluid, 0.1N HCl, pH initial 1.1, pH (48 h) 1.1, read-out: Solubility after 48 hours): 1240 µg/mL (≈ 3550 µM)
solubility at 24 h ([1]; pH 1.6, simulated gastric fluid, SGF pH 1.6, pH initial 1.6, pH (24 h) 1.4, read-out: Solubility after 24 hours): 415 µg/mL (≈ 1190 µM)
solubility at 48 h ([1]; pH 1.6, simulated gastric fluid, SGF pH 1.6, pH initial 1.6, pH (48 h) 1.4, read-out: Solubility after 48 hours): 398 µg/mL (≈ 1140 µM)
solubility at 24 h ([1]; pH 3, aqueous buffer, Citrate pH 3.0, pH initial 3.0, pH (24 h) 2.8, read-out: Solubility after 24 hours): 66 µg/mL (≈ 189 µM)
solubility at 48 h ([1]; pH 3, aqueous buffer, Citrate pH 3.0, pH initial 3.0, pH (48 h) 2.8, read-out: Solubility after 48 hours): 65 µg/mL (≈ 187 µM)
solubility at 24 h ([1]; pH 4, aqueous buffer, Succinate pH 4.0, pH initial 4.0, pH (24 h) 3.9, read-out: Solubility after 24 hours): 56 µg/mL (≈ 161 µM)
solubility at 48 h ([1]; pH 4, aqueous buffer, Succinate pH 4.0, pH initial 4.0, pH (48 h) 3.9, read-out: Solubility after 48 hours): 55 µg/mL (≈ 158 µM)
solubility at 24 h ([1]; pH 4.5, aqueous buffer, Acetate pH 4.5, pH initial 4.6, pH (24 h) 4.5, read-out: Solubility after 24 hours): 70 µg/mL (≈ 201 µM)
solubility at 48 h ([1]; pH 4.5, aqueous buffer, Acetate pH 4.5, pH initial 4.6, pH (48 h) 4.5, read-out: Solubility after 48 hours): 65 µg/mL (≈ 187 µM)
solubility at 24 h ([1]; pH 5, aqueous buffer, Citrate pH 5.0, pH initial 5.0, pH (24 h) 5.0, read-out: Solubility after 24 hours): 97 µg/mL (≈ 278 µM)
solubility at 48 h ([1]; pH 5, aqueous buffer, Citrate pH 5.0, pH initial 5.0, pH (48 h) 4.9, read-out: Solubility after 48 hours): 95 µg/mL (≈ 273 µM)
solubility at 48 h ([1]; pH 5.3, water, Water, pH initial 6.3, pH (48 h) 5.3, read-out: Solubility after 48 hours): 132 µg/mL (≈ 379 µM)
solubility at 24 h ([1]; pH 5.4, water, Water, pH initial 6.3, pH (24 h) 5.4, read-out: Solubility after 24 hours): 148 µg/mL (≈ 425 µM)
solubility at 24 h ([1]; pH 6, aqueous buffer, Histidine pH 6.0, pH initial 6.1, pH (24 h) 5.8, read-out: Solubility after 24 hours): 532 µg/mL (≈ 1530 µM)
solubility at 48 h ([1]; pH 6, aqueous buffer, Histidine pH 6.0, pH initial 6.1, pH (48 h) 5.8, read-out: Solubility after 48 hours): 485 µg/mL (≈ 1390 µM)
solubility at 24 h ([1]; pH 6.8, aqueous buffer, Potassium phosphate pH 6.8, pH initial 6.9, pH (24 h) 6.6, read-out: Solubility after 24 hours): 2370 µg/mL (≈ 6800 µM)
solubility at 48 h ([1]; pH 6.8, aqueous buffer, Potassium phosphate pH 6.8, pH initial 6.9, pH (48 h) 6.5, read-out: Solubility after 48 hours): 2710 µg/mL (≈ 7770 µM)
solubility at 24 h ([1]; pH 6.9, aqueous buffer, 0.03N NaOH, pH initial 12.3, pH (24 h) 6.9, read-out: Solubility after 24 hours): 10600 µg/mL (≈ 30300 µM)
solubility at 48 h ([1]; pH 6.9, aqueous buffer, 0.03N NaOH, pH initial 12.3, pH (48 h) 6.9, read-out: Solubility after 48 hours): 10300 µg/mL (≈ 29400 µM)
solubility at 48 h ([1]; pH 7, aqueous buffer, 0.1N NaOH, pH initial 12.8, pH (48 h) 7.0, read-out: Solubility after 48 hours): 33500 µg/mL (≈ 96100 µM)
solubility at 24 h ([1]; pH 7, aqueous buffer, Sodium phosphate pH 7.0, pH initial 7.0, pH (24 h) 6.7, read-out: Solubility after 24 hours): 3520 µg/mL (≈ 10100 µM)
solubility at 48 h ([1]; pH 7, aqueous buffer, Sodium phosphate pH 7.0, pH initial 7.0, pH (48 h) 6.6, read-out: Solubility after 48 hours): 3620 µg/mL (≈ 10400 µM)
solubility at 24 h ([1]; pH 7.1, aqueous buffer, 0.1N NaOH, pH initial 12.8, pH (24 h) 7.1, read-out: Solubility after 24 hours): 31900 µg/mL (≈ 91500 µM)
solubility at 48 h ([1]; pH 7.4, aqueous buffer, 0.3N NaOH, pH initial 13.2, pH (48 h) 7.4, read-out: Solubility after 48 hours): 93600 µg/mL (≈ 269000 µM)
solubility at 24 h ([1]; pH 11.7, aqueous buffer, 0.3N NaOH, pH initial 13.2, pH (24 h) 11.7, read-out: Solubility after 24 hours): 87800 µg/mL (≈ 252000 µM)
half-life [2]: 10 to 28 h
decrease of AUC∞ by a low-fat meal compared with the fasted state [3]: ~17%
decrease of Cmax by a low-fat meal compared with the fasted state [3]: approximately 21%
